Measured values from US9334271B2, “Purine derivatives and their use in the treatment of disease” (Novarits AG, priority 2012, dated 2016).
Like-named read-outs stand apart in the source and are kept apart here.

Tests used:
[1] = tested on: cellular mTOR kinase activity (phosphorylation of Thr 389 of S6K1) in TSC1-/- MEFs; assay: Test 2: Cellular mTOR assay (P-P70S6K T389 Surefire); assay type: cell-based; conditions: Mus musculus
Procedure: Test 2: Cellular mTOR Assay
30 μl are added per well to a 384 well-plate using a Multidrop instrument (Thermo scientific), resulting in 4000 cells/well. The plates are incubated at 37° C./5% CO2 for 20 hours (to allow for settling and adherance to the surface).
Eight 3-fold serial dilutions of test-compounds (beginning at 1.8 mM) are prepared in 90% DMSO and compiled on 384 well master plates (Greiner). A pan-pPI3K/mTOR inhibitor (0.8 mM of 8-(6-methoxy-pyridin-3-yl)-3-methyl-1-(4-piperazin-1-yl-3-trifluoromethyl-phenyl)-1,3-dihydro-imidazo[4,5-c]quinolin-2-one in 90% DMSO) is added to the wells for the low control. 90% DMSO is added to the wells for the high controls. Compounds are provided as 250 nl shots (Hummingbird) in 384 well-polypropylene microplates (compound plates). 50 μl of growth medium is added to the compound plates (dilution 1:200) with the Multidrop. After shaking (1 min at 2000 rpm), 10 μl of the first dilution is then transferred to the cell plate with a Matrix Plate Mate 2×3 pipettor (final dilution 1:4). After 1 hour of treatment, medium is removed from the plate and 20 μl of Surefire lysis buffer is added per well with the Multidrop.
Cell lysates are frozen for 15 minutes, thawed with shaking and transferred to the experimental 384 well-Proxiplate (5 μl/well) for the P-P70S6K (T389) Surefire assay (Perkin Elmer #TGR70S50). The first mix is composed of the reaction buffer (containing the specific antibody), the activation buffer and the acceptor beads (40 vol, 10 vol and 1 vol respectively). 5 μl per well is added to the lysates with a Zephyr® SPE Workstation (Caliper Life Sciences) and incubated for 2 hours with shaking at room temperature. After this incubation time, the second mix of dilution buffer and donor beads (20 vol and 1 vol respectively) is added to the plate with the same instrument (2 μl/well). After 2 hours, the plate can be read with an EnVision® Multilabel Reader (Perkin Elmer). Since the beads are light sensitive, their transfer and incubation is executed in a dark room (greenlight).
The raw data is used to generate dose response curves for test compounds and IC50 values calculated therefrom.

[2] = tested on: H4 mCherry-GFP-LC3 cells; assay: Test 3: Autophagy assay (mCherry-GFP-LC3 reporter, high-content imaging); assay type: cell-based, human; conditions: 16-18 h treatment, mCherry-positive LC3 puncta/cell
From the text: Autophagy is a catabolic pathway that degrades bulk cytosol in lysosomal compartments enabling amino acids and fatty acids to be recycled. One of the key regulators of autophagy is the mammalian target of rapamycin (mTOR), a conserved serine/threonine kinase which suppresses the initiation of the autophagic process when nutrients, growth factors and energy are available. To quantify autophagy induction by mTOR inhibitors, we use a mCherry-GFP-LC3 reporter which is amenable to retroviral delivery into mammalian cells, stable expression and analysis by fluorescence microscopy.
The amino acid sequence of the mCherry-GFP-LC3 construct is shown below (SEQ ID NO: 1). The mCherry sequence is underlined, GFP sequence is in bold and LC3A sequence is boxed.
Described hereinafter is an imaging protocol and image recognition algorithm to visualize and measure changes in the autophagic pathway.
Quantification of Autophagy Using High-Content Imaging and Analysis
• 1. Day 0: Cell plating. Subconfluent H4 mCherry-GFP-LC3 cells are harvested by trypsinization, resuspended in growth medium, and counted (H4 cells: Human neuroglioma cell line (ATCC)). A cell suspension of 66′000 cells/mL is prepared and 30 μL are added into the wells of a 384-well plate using an electronic multichannel pipette. […] The cell plates are briefly spun down and placed at 37° C. and 5% CO2. • 2. Day 1: Compound treatment. Compound dose responses are prepared in DMSO. The dose responses are then diluted 1:50 in medium. 10 ul of the diluted compound is added to 30 ul of cells, yielding a final 1:200 dilution of the original compound and final of 0.5% DMSO. Compound-treatments are performed in triplicates. The 384-well plates are placed at 37° C. and 5% CO2. Compound treatment is performed for 16-18 h (see Note 1). • 3. Day 2: Cell fixation. Cells are fixed by adding 10 μL/well 5× concentrated Mirsky's fixative supplemented with 25 μg/mL Hoechst33342. […] The 384-well plate is briefly spun down and incubated for 1 h at room temperature. Cells are then washed using a 384-well plate washer using a protocol which aspirates the volume down to 10 μL/well before dispensing 100 μL/well 1×TBS. Aspiration and dispensing steps are repeated 4 times and a final volume of 100 μL/well is left. The plate is sealed using an adhesive PCR foil. • 4. Imaging. The bottom of the plate is cleaned with 70% ethanol and then imaged using the InCell 1000 automated epifluorescence microscope. 20× magnification is used and 4 different areas (fields) are imaged per well, this typically captures a total of around 400 cells per well. Hoechst33342 images are acquired using an excitation of 360 nm (D360_40x filter), an emission of 460 nm (HQ460_40M filter) and an exposure time of 150 ms. GFP images are acquired using an excitation of 475 nm (S475_20x filter), an emission of 535 nm (HQ535_50M filter) and an exposure time of 1 s. mCherry images are acquired using an excitation of 535 nm (HQ535_50x filter), an emission of 620 nm (HQ620_60M filter) and an exposure time of 1 s. A quadruple band pass mirror is used for all images. • 5. Image analysis. The InCell Analysis software is used to analyze the images using the Multi Target Analysis algorithm. First, nuclei are detected in the Hoechst33342 image using top-hat segmentation and a minimal nuclear area of 50 μm^2. Cells are defined using a collar of 10 μm around the nuclei. Second, puncta (organelles) are identified in the mCherry image inside the cells using multi-top-hat segmentation. Third, the mask of the mCherry puncta is transferred onto the GFP image. Fourth, the GFP fluorescence intensity inside the mCherry puncta mask is measured (reference intensity). • 6. The ‘organelles’ parameter reflects mCherry-positive puncta of the mCherry-GFP-LC3 reporter and is used to calculate ‘LC3 puncta/cell’. […]

[3] = biological target: recombinant human mTOR (Homo sapiens (Human), UniProt P42345); assay: Test 1: mTOR ATP-binding assay based on TR-FRET; conditions: GST-tagged truncated human mTOR, tracer-314, TR-FRET
Chain of recombinant human mTOR (P42345 1360-2549): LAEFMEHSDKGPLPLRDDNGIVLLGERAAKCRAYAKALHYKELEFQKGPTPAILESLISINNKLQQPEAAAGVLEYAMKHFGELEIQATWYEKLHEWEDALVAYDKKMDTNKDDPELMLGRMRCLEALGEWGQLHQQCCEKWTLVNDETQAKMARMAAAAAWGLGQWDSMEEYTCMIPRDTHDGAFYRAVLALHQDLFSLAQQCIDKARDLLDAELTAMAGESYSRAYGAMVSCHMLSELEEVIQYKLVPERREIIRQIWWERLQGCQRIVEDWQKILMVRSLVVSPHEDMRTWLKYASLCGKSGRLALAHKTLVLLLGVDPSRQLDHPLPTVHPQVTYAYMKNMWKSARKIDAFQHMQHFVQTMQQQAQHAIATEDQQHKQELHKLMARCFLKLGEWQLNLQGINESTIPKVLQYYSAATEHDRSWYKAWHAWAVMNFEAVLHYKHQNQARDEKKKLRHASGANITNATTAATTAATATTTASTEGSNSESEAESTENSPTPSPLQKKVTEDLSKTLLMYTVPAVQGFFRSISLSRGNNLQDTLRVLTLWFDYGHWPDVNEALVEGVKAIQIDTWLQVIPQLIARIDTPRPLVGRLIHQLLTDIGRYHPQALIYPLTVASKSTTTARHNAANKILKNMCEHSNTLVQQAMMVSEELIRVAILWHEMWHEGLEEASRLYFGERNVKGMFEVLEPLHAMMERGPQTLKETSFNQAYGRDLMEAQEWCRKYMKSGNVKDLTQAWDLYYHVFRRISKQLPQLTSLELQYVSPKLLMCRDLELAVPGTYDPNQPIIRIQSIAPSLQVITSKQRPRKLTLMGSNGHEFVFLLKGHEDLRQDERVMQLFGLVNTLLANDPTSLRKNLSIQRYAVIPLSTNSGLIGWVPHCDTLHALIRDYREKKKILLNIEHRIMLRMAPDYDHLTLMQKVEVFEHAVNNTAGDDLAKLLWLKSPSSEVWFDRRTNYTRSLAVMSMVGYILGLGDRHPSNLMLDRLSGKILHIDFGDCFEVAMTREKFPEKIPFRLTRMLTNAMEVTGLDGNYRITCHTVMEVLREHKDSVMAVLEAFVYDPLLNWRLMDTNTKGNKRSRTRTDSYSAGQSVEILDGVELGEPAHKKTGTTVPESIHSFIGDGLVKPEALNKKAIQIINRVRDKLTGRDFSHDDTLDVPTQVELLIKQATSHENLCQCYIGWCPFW
Procedure: Test 1: mTOR ATP-Binding Assay Based on TR-FRET for Recombinant Human mTOR
2. The final volume of the assay is 10 μL and the order of addition is as follows:
50 nL of compounds dilution;
Incubated for 60 minutes at room temperature.
TR-FRET measured in Biotek Synergy2 reader at: • Excitation 340 nm/emission 665 nm • Excitation 340 nm/emission 620 nm
The following final concentrations are used:
1 nM Europium anti-GST antibody;
The following controls are used:
3. IC50 determinations may be performed as follows:
The Emission ratio is converted to percentage of inhibition for each compound concentration. IC50 values are calculated by fitting a sigmoidal dose-response curve to a plot of assay readout over compound concentration. All fits and analysis are performed with the program XLfit4 (ID Business Solutions, Guildford, UK).

[4] = TSC1-/- MEFs, 1 hour treatment, P-P70S6K (T389), read-out: Test 2: T389 cellular assay IC50
[5] = 1 h, read-out: Test 2: T389 cellular assay IC50 (nM)

| Structure (SMILES) | EC50 ([2]; Homo sapiens) | IC50 [3] | IC50 [1, 5] | also measured |
| --- | --- | --- | --- | --- |
| C[C@@H]1COCCN1c1nc(N2CCOC[C@H]2C)c2nc(-c3ccc(-c4ncc[nH]4)cc3)[nH]c2n1 [Example 4, 8-[4-(1H-Imidazol-2-yl)-phenyl]-2,6-bis-((R)-3-methyl-morpholin-4-yl)-9H-purine] | 2160 nM | 2120 nM | – | IC50 [1, 4]: 1550 nM |
| C[C@@H]1COCCN1c1nc(N2CCO[C@@H](CO)C2)nc2[nH]c(-c3cccc4[nH]ccc34)nc12 [Example 26, {(R)-4-[8-(1H-Indol-4-yl)-6-((R)-3-methyl-morpholin-4-yl)-9H-purin-2-yl]-morpholin-2-yl}-methanol] | – | 67 nM | 318 nM | – |
| c1ccc(-c2nc3c(N4CCOCC4)nc(N4CCOCC4)nc3[nH]2)nc1 [Example 9, 2,6-Di-morpholin-4-yl-8-pyridin-2-yl-9H-purine] | – | 860 nM | – | – |
| C[C@@H]1COCCN1c1nc(N2CC3COCC3C2)nc2[nH]c(-c3cccc4[nH]ccc34)nc12 (stereo partly drawn) [Example 19, 8-(1H-Indol-4-yl)-6-((R)-3-methyl-morpholin-4-yl)-2-(tetrahydro-furo[3,4-c]pyrrol-5-yl)-9H-purine] | 727 nM | – | 471 nM | – |
| CC(C)[C@@H]1COCCN1c1nc(N2CCOC[C@H]2C)c2nc(-c3cccc4[nH]ccc34)[nH]c2n1 [Example 21, 8-(1H-Indol-4-yl)-2-((R)-3-isopropyl-morpholin-4-yl)-6-((R)-3-methyl-morpholin-4-yl)-9H-purine] | – | 122 nM | 179 nM | – |
| C[C@@H]1COCCN1c1nc(N2CCN(C)CC2)nc2[nH]c(-c3cccc4[nH]ccc34)nc12 [Example 16, 8-(1H-Indol-4-yl)-6-((R)-3-methyl-morpholin-4-yl)-2-(4-methyl-piperazin-1-yl)-9H-purine] | – | 308 nM | 259 nM | Test 3: Autophagy EC50 (nM) [2]: n.m. |
| CC[C@@H]1COCCN1c1nc(N2CCOC[C@H]2C)c2nc(-c3cccc4[nH]ccc34)[nH]c2n1 [Example 15, 2-((R)-3-Ethyl-morpholin-4-yl)-8-(1H-indol-4-yl)-6-((R)-3-methyl-morpholin-4-yl)-9H-purine] | 752 nM | 60 nM | 194 nM | – |
| C[C@@H]1COCCN1c1nc(N2CCOC[C@@H]2C)nc2[nH]c(-c3cc[nH]n3)nc12 [Example 2, 2-((S)-3-Methyl-morpholin-4-yl)-6-((R)-3-methyl-morpholin-4-yl)-8-(1H-pyrazol-3-yl)-9H-purine] | 1050 nM | 104 nM | – | IC50 [1, 4]: 131 nM |
| C[C@@H]1CN(c2nc(N3CCOC[C@H]3C)c3nc(-c4cccc5[nH]ccc45)[nH]c3n2)C[C@H](C)O1 [Example 23, 2-((2S,6R)-2,6-Dimethyl-morpholin-4-yl)-8-(1H-indol-4-yl)-6-((R)-3-methyl-morpholin-4-yl)-9H-purine] | – | 78 nM | 104 nM | Test 3: Autophagy EC50 (nM) [2]: n.m. |
| C[C@@H]1COCCN1c1nc(N2CCOC[C@H]2C)c2nc(-c3ccc(N)nc3)[nH]c2n1 [Example 28, 5-[2,6-Bis-((R)-3-methyl-morpholin-4-yl)-9H-purin-8-yl]-pyridin-2-ylamine] | 2370 nM | 754 nM | 272 nM | – |
| C[C@@H]1COCCN1c1nc(N2CCC23CCOCC3)nc2[nH]c(-c3cccc4[nH]ccc34)nc12 [Example 24, 8-(1H-Indol-4-yl)-6-((R)-3-methyl-morpholin-4-yl)-2-(7-oxa-1-aza-spiro[3.5]non-1-yl)-9H-purine] | 302 nM | – | – | – |
| C[C@@H]1COCCN1c1nc(N2CCOC[C@@H]2C)nc2[nH]c(-c3cc(F)cc4[nH]ccc34)nc12 [Example 5, 8-(6-Fluoro-1H-indol-4-yl)-2-((S)-3-methyl-morpholin-4-yl)-6-((R)-3-methyl-morpholin-4-yl)-9H-purine] | – | 21 nM | – | IC50 [1, 4]: 122 nM |
| C[C@@H]1COCCN1c1nc(N2CCC3COCC3C2)nc2[nH]c(-c3cccc4[nH]ccc34)nc12 (stereo partly drawn) [Example 20, 2-(Hexahydro-furo[3,4-c]pyridin-5-yl)-8-(1H-indol-4-yl)-6-((R)-3-methyl-morpholin-4-yl)-9H-purine] | – | – | – | Test 3: Autophagy EC50 (nM) [2]: n.m. |
| C[C@@H]1COCCN1c1nc(N2CCO[C@H](CO)C2)nc2[nH]c(-c3cccc4[nH]ccc34)nc12 [Example 25, {(S)-4-[8-(1H-Indol-4-yl)-6-((R)-3-methyl-morpholin-4-yl)-9H-purin-2-yl]-morpholin-2-yl}-methanol] | – | 380 nM | 1930 nM | – |
| C[C@@H]1COCCN1c1nc(N2C3CCC2CC(O)C3)nc2[nH]c(-c3cccc4[nH]ccc34)nc12 (stereo partly drawn) [Example 14, 8-[8-(1H-Indol-4-yl)-6-((R)-3-methyl-morpholin-4-yl)-9H-purin-2-yl]-8-aza-bicyclo[3.2.1]octan-3-ol] | – | – | – | EC50 [2]: 855 nM |
| C[C@@H]1COCCN1c1nc(N2CC3(CCCOC3)C2)nc2[nH]c(-c3cccc4[nH]ccc34)nc12 [Example 17, 8-(1H-Indol-4-yl)-6-((R)-3-methyl-morpholin-4-yl)-2-(6-oxa-2-aza-spiro[3.5]non-2-yl)-9H-purine] | 663 nM | – | – | – |
| C[C@@H]1COCCN1c1nc(N2C3CCC2CC(O)C3)nc2[nH]c(-c3cccc4[nH]ccc34)nc12 (stereo partly drawn) [Example 13, 8-[8-(1H-Indol-4-yl)-6-((R)-3-methyl-morpholin-4-yl)-9H-purin-2-yl]-8-aza-bicyclo[3.2.1]octan-3-ol] | 935 nM | – | – | – |
